In data set [1] the test system is inward rectifier potassium (IK1) current. In words: Whole-cell patch-clamp, steady state current-voltage relation in dog ventricular myocytes. The format is cell-based. The conditions noted are these: 10 µM, dog left ventricular myocytes. From the text: The effects of SZV-2649 on transmemrane ionic currents were investigated in dog cardiac myocytes after a 5-minute superfusion of the drug.
Figure 4D represents the steady state current-voltage relation after 300 ms pulses from − 100 mV to 60 mV using 10 mV increments applying 3-second pulsing cycle length from the holding potential of -90 mV.
Ventricular myocytes from Beagle dogs were enzymatically dissociated as described in detail previously. A single droplet of cell suspension was placed in a transparent recording chamber mounted on the stage of an inverted microscope (Olympus IX51, Olympus, Tokyo, Japan), and individual myocytes were allowed to settle and adhere to the chamber bottom for at least 5–10 min before superfusion was initiated and maintained by gravity. Only rod-shaped cells with clear striations were used. […]
The membrane currents were recorded with Axopatch-200B amplifiers (Molecular Devices, Sunnyvale, CA, USA) by means of the whole-cell configuration of the patch-clamp technique. […]
The inward rectifier (IK1), the transient outward (Ito), the rapid (IKr) and the slow (IKs) delayed rectifier potassium currents were recorded in HEPES-buffered Tyrode’s solution. […] When IKr was recorded, IKs was inhibited by using the selective IKs blocker HMR-1556 (0.5 µM). […]
(The patch-clamp technique gives a direct electrical read-out from membranes.)

Data set [2] concerns the target T1, hERG (Kv11.1) potassium channel (Homo sapiens, UniProt Q12809).
T1 construct: host or cells: HEK293
Description: Automated planar patch-clamp, hERG current in HEK cells. The data set is classed as cell-based. The source says: Inhibition of the hERG channel, the pore forming α-subunit of the native IKr cardiac potassium channel, is expected to prolong repolarization both in the atria and in the ventricles. The GIRK channel is the pore forming α-subunit of the acetylcholine-activated potassium channel and plays an important role in atrial electrophysiology. Its inhibition can be expected to decrease the acetylcholine-activated potassium current (IKACh), a current that plays an important role in the pathogenesis of AF. Therefore, the effects of SZV-2649 on the hERG and GIRK ion channels were studied by the planar patch-clamp technique in mammalian HEK cell lines stably expressing these channels.
The currents conducted by the hERG and GIRK channels were measured by using planar patch-clamp technology[,[47],[68] in the whole-cell configuration with a four-channel medium-throughput fully automated patch-clamp platform (Patchliner Quattro, Nanion Technologies GmbH, Munich, Germany) with integrated temperature control. Data acquisition and online analysis were performed with an EPC-10 Quadro patch-clamp amplifier (HEKA Elektronik Dr Schulze GmbH, Lambrecht/Pfalz, Germany), using PatchMaster 2.65 software (HEKA Elektronik Dr. Schulze GmbH). The pipetting protocols were controlled by PatchControlHT 1.09.30 software (Nanion Technologies GmbH). […]

T1 sequence (Q12809 whole entry): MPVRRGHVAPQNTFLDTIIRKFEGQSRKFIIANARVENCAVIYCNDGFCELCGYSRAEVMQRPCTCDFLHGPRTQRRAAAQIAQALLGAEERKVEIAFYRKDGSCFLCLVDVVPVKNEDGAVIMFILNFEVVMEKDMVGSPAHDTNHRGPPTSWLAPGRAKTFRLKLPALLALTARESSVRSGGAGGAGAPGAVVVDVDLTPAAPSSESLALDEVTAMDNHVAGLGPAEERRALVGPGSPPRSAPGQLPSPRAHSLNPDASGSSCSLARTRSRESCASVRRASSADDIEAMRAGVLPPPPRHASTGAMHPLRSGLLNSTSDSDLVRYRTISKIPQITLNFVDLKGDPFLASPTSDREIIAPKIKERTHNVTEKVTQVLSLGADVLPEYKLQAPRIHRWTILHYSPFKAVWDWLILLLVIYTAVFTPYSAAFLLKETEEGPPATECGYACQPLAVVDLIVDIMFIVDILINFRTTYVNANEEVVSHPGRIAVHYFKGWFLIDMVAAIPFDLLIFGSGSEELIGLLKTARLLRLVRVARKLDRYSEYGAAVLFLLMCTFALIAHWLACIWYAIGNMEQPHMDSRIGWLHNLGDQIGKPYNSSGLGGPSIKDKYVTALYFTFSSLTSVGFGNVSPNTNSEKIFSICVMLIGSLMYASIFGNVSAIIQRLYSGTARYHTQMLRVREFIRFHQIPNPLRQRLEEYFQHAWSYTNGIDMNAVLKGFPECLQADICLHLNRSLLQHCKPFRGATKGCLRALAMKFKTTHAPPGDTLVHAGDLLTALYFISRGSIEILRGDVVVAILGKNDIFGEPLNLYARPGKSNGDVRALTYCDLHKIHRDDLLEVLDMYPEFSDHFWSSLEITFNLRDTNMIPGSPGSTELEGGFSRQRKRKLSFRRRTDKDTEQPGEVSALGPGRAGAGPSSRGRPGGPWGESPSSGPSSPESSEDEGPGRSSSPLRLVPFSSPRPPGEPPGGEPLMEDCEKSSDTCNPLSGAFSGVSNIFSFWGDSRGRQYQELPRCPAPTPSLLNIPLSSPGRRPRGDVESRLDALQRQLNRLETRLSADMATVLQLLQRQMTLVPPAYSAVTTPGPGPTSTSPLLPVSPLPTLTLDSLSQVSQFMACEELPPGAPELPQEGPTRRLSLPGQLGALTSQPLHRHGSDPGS

On to `CC(N)COc1c(I)cc(C#N)cc1I.Cl` (stereo not drawn) [SZV-2649, 4-(2-aminopropoxy)-3,5-diiodobenzonitrile hydrochloride], for which, in data set [1], the “Effect on inward rectifier potassium (IK1) current, steady state current-voltage relation” value is “no discernible effects”. The same molecule came in with an IC50 in data set [2] (HEK cells (abstract)) of 342 nM. Besides, the IC50 at 3 min in data set [2] (human, HEK293 cells stably expressing hERG (Kv11.1), pH 7.4, printed in picture of Fig. 2b, read-out: Effect on hERG: EC50) was determined as 342 nM.
